# Experimental data as given in paper PMC11796312, “Multifunctional, Fluorene‐Based Modulator of Cholinergic and GABAergic Neurotransmission as a Novel Drug Candidate for Palliative Treatment of Alzheimer's Disease” (Angewandte Chemie (International Ed. in English), 2024).
# Read-outs that look alike come from different tables or passages of the source.
# What was measured:
# [1] = system: SH-SY5Y cells; experiment: Intracellular O2•-, DHE probe, SH-SY5Y; assay type: cell-based, human
# [2] = biological target: mGAT1 (Mus musculus, UniProt P31648); experiment: [3H]GABA uptake assay, mGAT1; assay type: cell-based
# [3] = biological target: serotonin transporter (SERT) (Homo sapiens, UniProt P31645); experiment: Interaction with serotonin transporter
# Sequence of serotonin transporter (SERT) (P31645 whole entry, species assumed): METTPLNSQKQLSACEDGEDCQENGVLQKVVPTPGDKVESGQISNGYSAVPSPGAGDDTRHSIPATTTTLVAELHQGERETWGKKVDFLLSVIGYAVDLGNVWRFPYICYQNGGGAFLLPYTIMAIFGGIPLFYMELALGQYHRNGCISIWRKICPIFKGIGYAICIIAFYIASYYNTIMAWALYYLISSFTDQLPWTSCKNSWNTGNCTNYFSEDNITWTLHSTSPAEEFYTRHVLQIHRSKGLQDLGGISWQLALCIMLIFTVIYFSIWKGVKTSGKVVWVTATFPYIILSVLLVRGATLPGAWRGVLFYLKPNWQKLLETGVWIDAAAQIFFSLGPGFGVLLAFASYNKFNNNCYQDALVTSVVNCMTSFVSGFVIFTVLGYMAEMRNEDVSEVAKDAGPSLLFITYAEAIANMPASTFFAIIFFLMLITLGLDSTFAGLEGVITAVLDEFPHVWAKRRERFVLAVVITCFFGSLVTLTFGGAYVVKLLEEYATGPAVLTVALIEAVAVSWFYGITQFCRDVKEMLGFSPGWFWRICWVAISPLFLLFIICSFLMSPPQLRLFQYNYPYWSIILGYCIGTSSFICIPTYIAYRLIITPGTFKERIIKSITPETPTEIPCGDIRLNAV
# [4] = biological target: T1, human serotonin 5-HT7 receptor (Homo sapiens, UniProt P34969); experiment: cAMP 5-HT7 functional assay; assay type: cell-based
# T1 construct: host or cells: CHO-K1 (with CRE-bla reporter)
# T1 sequence (P34969 whole entry): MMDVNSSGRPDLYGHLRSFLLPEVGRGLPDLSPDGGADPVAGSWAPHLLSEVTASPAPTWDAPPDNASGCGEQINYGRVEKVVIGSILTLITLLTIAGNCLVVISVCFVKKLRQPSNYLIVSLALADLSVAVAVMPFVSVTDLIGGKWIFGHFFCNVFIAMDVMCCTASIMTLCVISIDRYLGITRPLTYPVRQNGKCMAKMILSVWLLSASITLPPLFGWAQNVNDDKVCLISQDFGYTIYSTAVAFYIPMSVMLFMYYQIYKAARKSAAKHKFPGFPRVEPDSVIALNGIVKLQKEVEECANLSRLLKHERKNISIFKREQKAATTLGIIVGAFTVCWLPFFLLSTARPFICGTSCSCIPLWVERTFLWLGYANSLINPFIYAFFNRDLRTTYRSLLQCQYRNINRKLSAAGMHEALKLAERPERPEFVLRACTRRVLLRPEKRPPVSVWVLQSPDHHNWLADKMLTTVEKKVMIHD
# Description: Functional assays for 5-HT7 receptor
# Test and reference compounds were dissolved in dimethyl sulfoxide (DMSO) at a
# concentration of 10 mM. Serial dilutions were prepared in a 96-well microplate in assay
# buffer, and 8 to 10 concentrations were tested. For the 5-HT7, adenylyl cyclase activity was
# The functional assay was performed on cells expressing the human 5-
# CHO-K1 cells were transfected with a beta-
# lactamase (bla) reporter gene under the control of the cyclic AMP response element (CRE)
# (Life Technologies). Thawed cells were resuspended in stimulation buffer (HBSS, 5 mM
# HEPES, 0.5 IBMX, and 0.1% BSA at pH 7.4) at 2x10^5 cells/ml for 5-HT7 receptor. The same
# volume (10 μl) of cell suspension was added to tested compounds for the 5 -HT7 receptor.
# Samples were loaded onto a white opaque half-area 96-well microplate. The antagonist
# The agonist and antagonist were added simultaneously. Cell stimulation was
# performed for 1 h at room temperature. After incubation, cAMP measurements were
# performed with homogeneous TR-FRET immunoassay using the LANCE Ultra cAMP kit
# (PerkinElmer, USA). The volume of 10 μl of EucAMP Tracer Working Solution and 10 μl of
# ULight-anti-cAMP Tracer Working Solution were added, mixed, and incubated for 1 h.
# TR-FRET signal was read on an EnVision microplate reader (PerkinElmer, USA). IC50 and
# EC50 were determined by nonlinear regression analysis using GraphPad Prism 9.0 software.
# [5] = Stability in plasma (UHPLC-MS method validation); assay type: in vitro ADME; details: rat plasma
# Source text: UHPLC-MS method for pharmacokinetics study
# Ultra high-performance liquid chromatography system consisting of Ultimate 3000 RS pump Dionex (Thermo Scientific, San Jose, CA, USA) coupled with high-resolution mass spectrometer with orbitrap analyzer (Q Exactive Focus, Thermo Scientific, San Jose, CA, USA) was used in quantitative analyses of 6 in plasma and brain homogenate. According to the EMA[43] and FDA[42] guidelines on Bioanalytical method validation, the method was fully validated for plasma and partially for brain homogenate. All the evaluated parameters met the […]
# Table S12. Summary of validation results (precision and accuracy) in plasma for five different concentrations - limit of quantitation(LLOQ), low (QC A), mid (QC B), high (QC C) a dilution (QC D) level. […]
# Stability evaluation in rat plasma as deviation from the reference value (100%)
# [6] = biological target: T2, eqBuChE (Equus caballus, UniProt P81908); experiment: biochemical; details: means±SEM of at least three experiments
# T2 construct: purchased Sigma-Aldrich
# T2 sequence (P81908 whole entry): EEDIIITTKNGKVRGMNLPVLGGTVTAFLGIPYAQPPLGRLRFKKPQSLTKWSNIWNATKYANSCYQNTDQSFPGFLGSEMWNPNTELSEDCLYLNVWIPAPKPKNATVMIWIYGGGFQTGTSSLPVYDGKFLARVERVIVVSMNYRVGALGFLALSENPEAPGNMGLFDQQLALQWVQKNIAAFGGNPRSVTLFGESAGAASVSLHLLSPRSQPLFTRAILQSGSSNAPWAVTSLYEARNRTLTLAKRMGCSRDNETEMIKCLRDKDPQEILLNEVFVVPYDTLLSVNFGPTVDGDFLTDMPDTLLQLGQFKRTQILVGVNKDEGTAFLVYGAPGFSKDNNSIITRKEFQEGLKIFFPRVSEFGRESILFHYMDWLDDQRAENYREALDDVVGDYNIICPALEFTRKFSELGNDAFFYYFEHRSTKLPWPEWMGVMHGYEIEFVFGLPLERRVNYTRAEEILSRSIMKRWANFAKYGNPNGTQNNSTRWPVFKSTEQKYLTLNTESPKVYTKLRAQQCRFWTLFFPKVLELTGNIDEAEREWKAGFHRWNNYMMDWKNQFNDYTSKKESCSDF
# [7] = system: SH-SY5Y cells; experiment: LC-MS determination of total MDA, SH-SY5Y; assay type: cell-based, human; details: all time intervals
# [8] = Cell viability, PrestoBlue (neurotoxicity); assay type: cell-based; details: mouse, 24 h, read-out: viability, neurotoxicity X [%]
# Description: (§1) Mouse Hippocampal Neuronal (HT-22) were cultured in Dulbecco's modified Eagle's Medium - high glucose (DMEM, Glutamx Thermo Fisher) supplemented with 10% inactivated fetal bovine serum heat (Thermo Fisher), 100 IU/ml penicillin (Sigma Aldrich) and 100 µg/ml streptomycin (Merck). Cells were cultured in flasks (area 75 cm2, Nunc), and incubated at 37°C, 5% CO2. For the measurement of cell viability cells were placed in a 96-well culture plate (2x10^4 cells per well, Falcon). Before the tests, cells were grown for 24 hours in the incubator (37°C, 5% CO2).
# (§2) Preparation of stock solutions of tested compounds
# (§3) Stock solutions were prepared in the concentration of 10 mM for test and reference compounds. Minimum 1 mg of each tested compound was weighed and dissolved in appropriate volume of dimethyl sulfoxide. Serial dilutions were prepared in DMSO and then the diluted compounds were transferred to PBS. Before assays eventual precipitation or opalescence was checked. All experiments were performed in duplicates, in three independent experiments. Cell viability was measured after 24 hours of incubation with tested cell line.
# (§4) Cell viability was evaluated using the Presto Blue reagent (Thermo Fisher), according to the manufacturer procedures. Following 24 hours of incubation with the tested molecule, PrestoBlue reagent was added to a microplate well in an amount equal to one tenth of the remaining medium volume. The resulting mixture was incubated for 15 minutes at 37°C, and the fluorescence intensity (EX 530; EM 580 nm) was measured in the plate reader POLARstar Omega, (BMG Labtech). The results (viability values) are provided as a percentage of live cells with respect to DMSO (control sample).
# (§5) Viability values were calculated as a percentage of live cells with respect to the control sample (DMSO). The negative control was medium without cells. IC 50 was determined by […]
# (§6) nonlinear regression analysis using GraphPad Prism 9.0 software. All values are expressed as […]
# (§7) Table S10. The viability of cells. neurotoxicity immuntoxicity
# (§8) The results (viability values) are provided as a percentage of live cells with respect to DMSO (control sample)
# (§9) Table S11. The viability of cells.
# [9] = system: Mouse Hippocampal Neuronal (HT-22); experiment: Cell viability, PrestoBlue (neurotoxicity); assay type: cell-based; details: Mus musculus, HT-22, 24 h
# Description: as §1, §2, §3, §4, §5, §6, §7, §8, §9
# [10] = biological target: T3, mGAT3 (Mus musculus, UniProt P31649); experiment: [3H]GABA uptake assay, mGAT3; assay type: cell-based
# T3 sequence (P31649 1-602): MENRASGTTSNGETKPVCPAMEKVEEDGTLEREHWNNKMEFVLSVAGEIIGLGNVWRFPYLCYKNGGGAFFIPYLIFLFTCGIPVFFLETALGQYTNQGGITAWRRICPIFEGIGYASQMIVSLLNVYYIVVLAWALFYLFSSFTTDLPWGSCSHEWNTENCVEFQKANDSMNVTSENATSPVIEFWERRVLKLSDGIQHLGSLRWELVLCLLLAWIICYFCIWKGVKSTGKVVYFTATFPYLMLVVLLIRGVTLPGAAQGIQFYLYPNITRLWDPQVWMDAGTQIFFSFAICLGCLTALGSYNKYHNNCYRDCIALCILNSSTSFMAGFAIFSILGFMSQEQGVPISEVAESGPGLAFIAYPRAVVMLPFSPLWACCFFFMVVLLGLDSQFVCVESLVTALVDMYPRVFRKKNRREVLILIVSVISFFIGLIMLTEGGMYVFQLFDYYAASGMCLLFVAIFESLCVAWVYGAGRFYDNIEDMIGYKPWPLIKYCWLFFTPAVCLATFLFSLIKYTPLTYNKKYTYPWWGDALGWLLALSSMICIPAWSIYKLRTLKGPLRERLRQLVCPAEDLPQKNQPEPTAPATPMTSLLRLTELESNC
structure (smiles),measurement,setting,value
O[C@H](CNCC1CC1)[C@H](Cc1ccccc1)NC1c2ccccc2-c2ccccc21 [Compound 6],increase in intracellular O2•-,[1]; all concentrations and times,No significant increase
same,decrease of O2•- level,"[1]; conc. = IC50, 24 h",15%
same,IC50,[2],11 µM
same,interaction with SERT,[3],ruled out interactions
same,Emax,[4]; read-out: 5-HT7 agonist mode E max % [10^-5 M],8%
same,Emax,[4]; read-out: 5-HT7 antagonist mode E max %,0%
same,Autosampler stability % (24h),"[5]; QC B (33,50 ng/mL), vs reference value 100%","97,6 ± 1,5%"
same,Freeze-thaw stability % (3 cycles),[5]; QC B,"95,8% ± 4,0"
same,Long-term stability % (3 month),[5]; QC B,"109,9 ± 0,5%"
same,Autosampler stability % (24h),"[5]; QC C (452,73 ng/mL)","94,6 ± 2,5%"
same,Freeze-thaw stability % (3 cycles),[5]; QC C,"102,0 ± 4,7%"
same,Long-term stability % (3 month),[5]; QC C,"105,7 ± 2,2%"
same,IC50,[6],0.31 ± 0.01 µM
same,increase in intracellular level of MDA,[7],no significant increase
same,"viability at 24 h, 0.1 µM","[8]; HT-22, 0.1 µM",99%
same,"viability at 24 h, 1 µM","[8]; HT-22, 1 µM",100%
same,"viability at 24 h, 10 µM","[8]; HT-22, 10 µM",99%
same,"viability at 24 h, 50 µM","[8]; HT-22, 50 µM",9.5%
same,"viability at 24 h, 100 µM","[8]; HT-22, 100 µM, vs DMSO",1.7%
same,IC50,[9]; read-out: NEUROTOXICITY IC50,23.1 µM
same,IC50,[9]; read-out: NEUROTOXICITY pIC (converted),22.9 µM
same,IC50,[10],7.41 ± 0.69 µM
